From patent US11358971B2, “Prodrugs of modulators of the NMDA receptor” (H. Lundbeck A/S, priority 2019, dated 2022)
pKd: −log10 of the molar value. Entries after “also recorded” stand apart in the source; their conditions may differ.

Assays:
time of immobility = experiment: Forced swim test; format: in vivo; settings: 3, 10 and 30 mg/kg subcutaneously, 24 h before test; vs vehicle; Wistar Kyoto rats
Procedure: Adult male Wistar Kyoto rats from Envigo (former Harlan; Blackthorn, UK). Animals are maintained under controlled conditions (21±1° C., 37±1%, 12/12 h light/dark cycles, lights on at 8 a.m.) with food and water available ad libitum. In all studies WKY rats were randomly allocated to a maximum of 5 treatment groups (n=20 per group). […] The dosing of the animals were performed by subcutaneous injection 24 h before test g. The WKY rats were individually placed into a glass cylinder (50 cm height, 20 cm diameter) containing 30 cm of water at 25±1° C. for a 5 min test phase. The test session recorded (using a video camera placed above the cylinder for subsequent behavioural analysis) the time of immobility (s). One-way analysis of variance (ANOVA) was used to detect statistical significance in the FST data. The Fisher least significant difference (LSD) test was used for post hoc analyses. Probability values of P<0.05 were considered as statistically significant. Statistical analyses were performed using SPSS.

[1] = tested on: high frequency oscillation; experiment: Resting state Electroencephalography (rsEEG); format: in vivo; settings: 20 mg/kg subcutaneously in 10% HPβCD; 30-40 min after dosing; vs vehicle; rats
Procedure: On the day of surgery, rats (270-300 g) were anesthetized with a 0.25 ml/100 g subcutaneous (SC) injection of 1:1 hypnorm/Dormicum and mounted in a stereotaxic frame (David Kopf Instruments, Tujunga, Calif., USA) with blunt ear bars. Marcain (0.2 ml SC) was injected under the scalp, and gel (Neutral Opthta Eye Gel) put on the eyes to prevent the mucous membrane drying out. Holes were burred in the skull to allow for placement of two depth electrodes (E363-series; PlasticsOne, Roanoke, Va., USA) in left and right pre/infralimbic PFC (AP: 3.0 mm from the bregma suture, Medial-Lateral (ML): +/−0.7 mm from the sagittal suture and DV: 3.0 mm from the dura) and thalamus (AP: −2.8 mm from the bregma suture, ML: +0.7 mm from the sagittal suture and DV: 4.4 mm from the dura) and three screw electrodes at vertex (AP: −2 mm from the bregma suture, ML: +2.0 mm from the sagittal suture), a reference electrode (AP: +8.0 mm and ML: −2.0 mm), and a ground electrode (AP: −5 mm, ML: +5 mm). […] Animal bodyweights were recorded daily. […]
The development of the locomotive state-detection algorithm and the state-specific pharmaco-EEG analyses were carried out in MATLAB R2017a (The MathWorks, Inc., Natick, Mass., USA) using functions from the sigTOOL toolbox. Significant differences between drug-treated animals and vehicle were assessed according to Turkey's honest significant difference.

[2] = tested on: tonic hind limb extensor seizure; experiment: Maximal Electro Shock Threshold (MEST); format: in vivo; settings: 3, 10 and 30 mg/kg subcutaneously, 30 min before test; vs vehicle 10% HPβCD; rats
Text: Naïve rats were acclimatised to the procedure room in their home cages, with food and water available ad libitum. All rats were weighed at the beginning of the study and randomly assigned to treatment groups. […] Rats were individually assessed for the production of a tonic hind limb extensor seizure using a Hugo Sachs Electronik stimulator, which delivered an adjustable constant current (1-300 mA) of 0.3 seconds duration via corneal electrodes. The stimulus intensity was varied, from a typical baseline of 25 mA, by an ‘up and down’ method of shock titration. […] This procedure continued for all rats within a treatment group. […] Significant differences between drug-treated animals and vehicle were assessed according to Litchfield and Wilcoxon (Litchfield J, Wilcoxon F. A simplified method for evaluating dose-effect experiments. J Pharmacol Exp Ther. 1949; 96(1): 99-113).

[3] = biological target: NR1s1s2 (ligand binding domains of the NMDA receptor), glycine site; settings: radioligand parameter stated in assay method; obtained from Sigma Aldrich; cited from earlier work

Row | Compound | time of immobility in forced swim test (time of immobility) | effects in resting state Electroencephalography (high frequency oscillation, baseline-normalized power) [1] | effects on the maximal electro shock threshold (seizure threshold CC50 current) [2] | pKd [3]
1 | COC(=O)[C@H](N)CNC(=O)c1cc2nccc(C)c2s1 [Compound 2c, Methyl (R)-2-amino-3-(7-methylthieno[3,2-b]pyridine-2-carboxamido)propanoate] | significant effects in time of immobility at the 30 mg/kg dose | significant effects in high frequency oscillation; also recorded: significant effects in resting state Electroencephalography | dose dependent effects | –
2 | O=C(O)C(=Cc1c(C(=O)O)[nH]c2cc(Cl)cc(Cl)c12)c1ccccc1 [[3H]-MDL-105,519] | – | – | – | 8.89
